According to patent publication US20150259371A1, “METHODS AND COMPOUNDS FOR INHIBITING GLYCOSYLTRANSFERASES” (SIMON FRASER UNIVERSITY, priority 2010, published 2015):
“Also recorded” adds a separate entry of the source. Counter-ions that a name gives are not always drawn.

Key:
[1] = test system: sialyl-Lewis X (sLeX) expression in HepG2 cells; assay: Immunoblot and lectin blot of HepG2 lysates; format: cell-based, human
Procedure: More specifically, monolayers of Hep G2 cells were grown to about 75% confluency in DMEM containing 10% FBS before they were switched to serum free media for 10 h. FBS-free conditions were utilized to limit the amount of fucose which could be made available to cells upon degradation of serum glycoproteins. Cells were subsequently exposed to peracetylated 5-thio-L-fucose (5-T-Fuc) in serum free media for 48 h after which the media were collected, gently centrifuged (800 rpm, 10 min, 4° C.) to remove dead cells, and concentrated (˜10-fold) by centrifugal filration (Amicon, NMWCO 3000 daltons). Cells were washed with cold PBS prior to harvesting them in PBS+0.5% SDS. Proteins were solubilised upon sonication (2 blasts, 10 sec, 15% power) and protein concentrations were determined for all samples by the DC protein concentration assay (BioRad). Samples were normalized prior to analysis. Identical amounts of proteins were analyzed for all lectin-blotting experiments. Cell extracts and conditioned media containing secreted proteins were all analyzed on 8% polyacrylamide gels (FIG. 10).
Monolayers of HepG2 cells were exposed to 50 μM 5-T-Fuc for varying lengths of time before they were harvested as described above. When necessary, fresh media and inhibitors were added after 24 h. Alternatively, cells were exposed to 5-T-Fuc for 24 h after which the media was replaced and cells were harvested at the indicated time-points (FIG. 11).

[2] = test system: core (α1,6)-fucosylation in CHO K1 cells; assay: Aleura aurantia lectin blot of CHO K1 cells; format: cell-based; settings: CHO K1, 48 h
[3] = test system: anti-O-GlcNAc antibody CTD110.6; assay: Blocking of anti-O-GlcNAc antibody binding to modified nup62; settings: 0-3 mM
Procedure: Blocking antibody interactions: Recombinantly modified nup62 was run on a gel and transferred onto nitrocellulose membrane. CTD110.6 at the appropriate dilution was incubated with 0-3 mM Me-GlcNAc or Me-5SGlcNAc for 1 h prior to applying to the membrane overnight at 4° C. The standard procedure for western blots was subsequently followed.

OGT [4] = molecular target: T1, OGT (Homo sapiens, UniProt O15294); assay: OGT transfer: UDP-sugar as donor, nup62 acceptor, UDP production by CE; format: biochemical
T1 construct: made in house
T1 sequence (O15294 whole entry): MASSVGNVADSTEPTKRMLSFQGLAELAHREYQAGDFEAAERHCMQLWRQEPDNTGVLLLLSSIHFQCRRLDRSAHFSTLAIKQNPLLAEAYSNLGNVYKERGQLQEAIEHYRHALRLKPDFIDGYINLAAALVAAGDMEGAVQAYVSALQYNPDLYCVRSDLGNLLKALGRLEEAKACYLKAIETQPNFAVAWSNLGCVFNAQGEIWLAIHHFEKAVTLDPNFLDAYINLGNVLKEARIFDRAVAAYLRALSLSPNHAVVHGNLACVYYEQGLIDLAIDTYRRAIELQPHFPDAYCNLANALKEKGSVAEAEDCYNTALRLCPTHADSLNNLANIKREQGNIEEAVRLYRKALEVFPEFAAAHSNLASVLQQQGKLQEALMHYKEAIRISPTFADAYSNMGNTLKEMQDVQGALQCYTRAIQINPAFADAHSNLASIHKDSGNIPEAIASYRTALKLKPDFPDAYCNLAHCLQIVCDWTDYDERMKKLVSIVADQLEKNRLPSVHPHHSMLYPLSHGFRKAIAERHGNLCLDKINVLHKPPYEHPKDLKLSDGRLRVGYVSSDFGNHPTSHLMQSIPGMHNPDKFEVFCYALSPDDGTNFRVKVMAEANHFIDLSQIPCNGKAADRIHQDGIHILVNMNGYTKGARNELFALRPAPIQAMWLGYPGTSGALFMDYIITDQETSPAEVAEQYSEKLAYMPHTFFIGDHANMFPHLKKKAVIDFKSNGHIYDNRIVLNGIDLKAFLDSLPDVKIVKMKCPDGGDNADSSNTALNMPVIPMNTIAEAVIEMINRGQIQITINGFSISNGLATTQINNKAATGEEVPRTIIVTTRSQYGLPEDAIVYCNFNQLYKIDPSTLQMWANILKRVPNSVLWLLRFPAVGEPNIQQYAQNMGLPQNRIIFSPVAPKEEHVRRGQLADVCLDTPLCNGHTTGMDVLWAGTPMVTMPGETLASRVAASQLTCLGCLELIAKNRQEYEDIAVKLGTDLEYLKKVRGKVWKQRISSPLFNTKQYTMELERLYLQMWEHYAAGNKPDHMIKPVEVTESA
Procedure: Capillary electrophoresis (CE): CE was performed on a ProteomeLab PA800 (Beckman-Coulter) using fused silica capillaries of […]×44 cm (to detector). The running buffer was 40 mM Na2B4O7 (Sigma), pH 9.5, containing 1.0% (wv) polyethylene glycol (MW 20,000; Fluka) and filtered prior to use. The capillary was conditioned by washing with 1 N NaOH (2 min, 20 psi), 18 MΩ H2O (3 min, 20 psi) and running buffer (5 min, 40 psi). After injecting a short (15 nL) H2O plug, samples were electrostatically introduced and pre-concentrated at the anode by applying a potential of -0.5 kV for 10 s according to the field-amplified sample injection technique described by Chien and Burgi^39. […] Electropherograms were derived by measuring the absorbance at 254 (+/−10) nm at a rate of 4 Hz. […]
OGT transfer: The ability of OGT (which was over-expressed and purified as described in Ref. ^40) to transfer UDP-5SGlcNAc was tested using recombinant nup62 as the acceptor. […] Production of UDP was monitored at 254 nm; the concentration was determined from a standard curve of UDP standards, which were prepared in triplicate using the same procedure as the reactions, at a concentration of between […] Controls in the absence of nup62 were subtracted to account for OGT-catalyzed hydrolysis of the UDP-sugars.

OGT [5] = molecular target: T1, OGT; settings: literature refs 40, 53; read-out: Km of natural substrate for OGT; cited from earlier work

C[C@H](S)[C@@H](O)[C@@H](O)[C@H](O)C=O [Compound 5-T-Fuc, 5-thiofucose]
sLeX expression, time course ([1]; HepG2, 50 μM): reduces sLeX expression in a time-dependant fashion | Aleura aurantia lectin reactivity ([1]; HepG2, 48 h): no decrease in Aleura aurantia lectin reactivity was observed | Maackia amurensis lectin binding ([1]; HepG2, 48 h): dose-dependent increase in Maackia amurensis lectin binding | time to full recovery of sLeX expression after exposure ([1]; HepG2, after a 24 h exposure): ≤ 24 h | sLeX expression, dose response ([1]; HepG2, serum free media, 48 h, anti-CD15s): significant, dose-dependent decrease in sLe^X expression; also recorded: reduces sialyl-lewis X expression in HepG2 liver cells | core-fucosylated antigens by Aleura aurantia lectin [2]: no further decrease in lectin reactivity was observed above inhibitor concentrations of 5 μM; also recorded: reduction in core (α1,6)-fucosylation

CO[C@H]1S[C@H](CO)[C@@H](O)[C@H](O)[C@H]1NC(C)=O [Compound 16, Methyl 2-acetamido-2-deoxy-5-thio-a-D-glucopyranoside]
blocking of CTD110.6 binding [3]: blocks binding almost as well as Me-GlcNAc

CC(=O)N[C@@H]1[C@@H](O)[C@H](O)[C@@H](CO)S[C@@H]1OP(=O)(O)OP(=O)(O)OC[C@H]1O[C@@H](n2ccc(=O)[nH]c2=O)[C@H](O)[C@@H]1O [UDP-5SGlcNAc, 5′-(2-acetamido-2-deoxy-5-thio-a-D-glucopyranosyl)diphosphate triethylammonium salt]
fold worse donor substrate for OGT as compared to UDP-GlcNAc (OGT [4]): approximately 14 fold

uridine diphospho-N-acetylglucosamine [UDP-GlcNAc]
Km (OGT [5]): 2 to 7 µM
